# Results reported in patent publication US20240261271A1, “APPLICATION OF HYDRONIDONE IN PREPARATION OF DRUG FOR TREATING OR PREVENTING CHRONIC HEPATITIS B WITH LIVER FIBROSIS” (priority 2021, published 2024).
# Where “and” joins values, the source holds several entries; their conditions need not be identical. Identical values can stand only once.
# Tested on: chronic hepatitis B with hepatic fibrosis
# Assay: Phase II clinical study: hepatic fibrosis Ishak score by liver biopsy, before and after 52 weeks of treatment on entecavir basic treatment
# Type: in vivo, human
# Conditions: for Ishak score 4 points, n(%) / Ishak score 5 points, n(%) / Ishak score 6 points, n(%) / Hepatic fibrosis Ishak score, Mean (SD) / Hepatic fibrosis Ishak score, Median / Ishak score 0 point, n(%) / Ishak score 1 point, n(%) / Ishak score 2 points, n(%) / Ishak score 3 points, n(%) / Progressive Ishak score (increases by ≥1 compared with the baseline) / Reversed Ishak score (decreases by ≥1 point compared with the baseline) / Stable Ishak score (unchanged compared with the baseline): 52 weeks of treatment; for Rate difference (B-C) % and 95% CI, Ishak score decreased by ≥1: 360 mg group minus 180 mg group; for Rate difference (B-C) % and 95% CI, Ishak score decreased by ≥1 / Rate difference (B-D) % and 95% CI, Ishak score decreased by ≥1 / Rate difference (A-B) % and 95% CI, Ishak score decreased by ≥1 / Rate difference (A-C) % and 95% CI, Ishak score decreased by ≥1 / Rate difference (A-D) % and 95% CI, Ishak score decreased by ≥1: 52 weeks; for Rate difference (B-D) % and 95% CI, Ishak score decreased by ≥1: 360 mg group minus 270 mg group; for Rate difference (A-C) % and 95% CI, Ishak score decreased by ≥1: placebo group minus 180 mg group; for Rate difference (A-D) % and 95% CI, Ishak score decreased by ≥1: placebo group minus 270 mg group
# Experimental: This is a randomized, double-blind, placebo-controlled, multicenter, and dose-finding phase II clinical study with foundational treatment. In the clinical trial, three different dose test groups and a placebo control group were set on the basis of the entecavir capsule antiviral treatment, and the planned sample amount of each group was 60 cases, totaling 240 cases. The three dose test groups were 180 mg group, 270 mg group, and 360 mg group, respectively. […]
# [1] = 270 mg group, PPS, baseline Ishak score ≥3
# [2] = 270 mg group, PPS, all subjects
# [3] = 270 mg group, PPS, screening period-follow-up 15 (52 weeks), baseline Ishak score ≥3
# [4] = 360 mg group, FAS, 52 weeks of treatment vs baseline, all subjects
# [5] = 360 mg group, FAS, all subjects
# [6] = 360 mg group, FAS, baseline Ishak score ≥3
# [7] = 360 mg group, FAS, screening period-follow-up 15 (52 weeks), baseline Ishak score ≥3
# [8] = 360 mg group, PPS, 52 weeks of treatment vs baseline, all subjects
# [9] = 360 mg group, PPS, all subjects
# [10] = 360 mg group, PPS, baseline Ishak score ≥3
# [11] = 360 mg group, PPS, screening period-follow-up 15 (52 weeks), baseline Ishak score ≥3
# [12] = Group B/C/D combined, FAS, baseline Ishak score ≥2
# [13] = Group B/C/D combined, FAS, screening period-follow-up 15 (52 weeks), baseline Ishak score ≥2
# [14] = Group B/C/D combined, PPS, baseline Ishak score ≥2
# [15] = Group B/C/D combined, PPS, screening period-follow-up 15 (52 weeks), baseline Ishak score ≥2
smiles,measurement,setting,value
Cc1ccc(=O)n(-c2ccc(O)cc2)c1 [hydronidone],"Ishak score 4 points, n(%)",[1],5(20.00) n(%)
same,"Ishak score 5 points, n(%)",[1],5(20.00) n(%)
same,"Ishak score 6 points, n(%)",[1],2(8.00) n(%)
same,"Ishak score change, Baseline-52 weeks of treatment, Mean (SD)",[2],0.91(1.15)
same,"Ishak score change, Baseline-52 weeks of treatment, Median",[2],1.00
same,"Ishak score decreased by <1, n(%)",[3],7(28.00) n(%)
same,"Ishak score decreased by ≥1, n(%)",[3],18(72.00) n(%)
same,"Rate difference (B-C) % and 95% CI, Ishak score decreased by ≥1","FAS, all subjects","3.43(−17.12, 23.60) %"
same,"Rate difference (B-C) % and 95% CI, Ishak score decreased by ≥1","FAS, baseline Ishak score ≥3","4.45(−20.88, 29.28) %"
same,"Rate difference (B-C) % and 95% CI, Ishak score decreased by ≥1","PPS, all subjects","5.72(−16.89, 27.53) %"
same,"Rate difference (B-C) % and 95% CI, Ishak score decreased by ≥1","PPS, baseline Ishak score ≥3","8.91(−17.46, 34.07) %"
same,"Rate difference (B-D) % and 95% CI, Ishak score decreased by ≥1","FAS, all subjects","−12.20(−32.01, 9.10) %"
same,"Rate difference (B-D) % and 95% CI, Ishak score decreased by ≥1","FAS, baseline Ishak score ≥3","−5.67(−29.01, 18.67) %"
same,"Rate difference (B-D) % and 95% CI, Ishak score decreased by ≥1","PPS, all subjects","−12.77(−33.83, 9.98) %"
same,"Rate difference (B-D) % and 95% CI, Ishak score decreased by ≥1","PPS, baseline Ishak score ≥3","−4.00(−27.91, 20.54) %"
same,"Ishak score decreased by <1, n(%)",[4],23(56.10) n(%)
same,"Ishak score decreased by ≥1, n(%)",[4],18 (43.90%) n(%) and 18(43.90) n(%)
same,"Hepatic fibrosis Ishak score, Mean (SD)",[5],2.83(1.45)
same,"Hepatic fibrosis Ishak score, Median",[5],3.00
same,"Ishak score 0 point, n(%)",[5],0(0.00) n(%)
same,"Ishak score 1 point, n(%)",[5],10(24.39) n(%)
same,"Ishak score 2 points, n(%)",[5],8(19.51) n(%)
same,"Ishak score 3 points, n(%)",[5],9(21.95) n(%)
same,"Ishak score 4 points, n(%)",[5],8(19.51) n(%)
same,"Ishak score 5 points, n(%)",[5],5(12.20) n(%)
same,"Ishak score 6 points, n(%)",[5],1(2.44) n(%)
same,Progressive Ishak score (increases by ≥1 compared with the baseline),[5],5 (12.20%) n(%) and 5(12.20) n(%)
same,Reversed Ishak score (decreases by ≥1 point compared with the baseline),[5],18(43.90) n(%)
same,Stable Ishak score (unchanged compared with the baseline),[5],18 (43.90%) n(%) and 18(43.90) n(%)
same,"Ishak score 0 point, n(%)",[6],0(0.00) n(%)
same,"Ishak score 1 point, n(%)",[6],4(13.79) n(%)
same,"Ishak score 2 points, n(%)",[6],4(13.79) n(%)
same,"Ishak score 3 points, n(%)",[6],8(27.59) n(%)
same,"Ishak score 4 points, n(%)",[6],7(24.14) n(%)
same,"Ishak score 5 points, n(%)",[6],5(17.24) n(%)
same,"Ishak score 6 points, n(%)",[6],1(3.45) n(%)
same,"Ishak score change, Baseline-52 weeks of treatment, Mean (SD)",[5],0.56(1.25)
same,"Ishak score change, Baseline-52 weeks of treatment, Median",[5],0.00
same,"Ishak score decreased by <1, n(%)",[7],12(41.38) n(%)
same,"Ishak score decreased by ≥1, n(%)",[7],17(58.62) n(%)
same,"Ishak score decreased by <1, n(%)",[8],16(47.06) n(%)
same,"Ishak score decreased by ≥1, n(%)",[8],18 (52.94%) n(%) and 18(52.94) n(%)
same,"Hepatic fibrosis Ishak score, Mean (SD)",[9],2.82(1.49)
same,"Hepatic fibrosis Ishak score, Median",[9],3.00
same,"Ishak score 0 point, n(%)",[9],0(0.00) n(%)
same,"Ishak score 1 point, n(%)",[9],9(26.47) n(%)
same,"Ishak score 2 points, n(%)",[9],6(17.65) n(%)
same,"Ishak score 3 points, n(%)",[9],7(20.59) n(%)
same,"Ishak score 4 points, n(%)",[9],7(20.59) n(%)
same,"Ishak score 5 points, n(%)",[9],4(11.76) n(%)
same,"Ishak score 6 points, n(%)",[9],1(2.94) n(%)
same,Progressive Ishak score (increases by ≥1 compared with the baseline),[9],5 (14.71%) n(%) and 5(14.71) n(%)
same,Reversed Ishak score (decreases by ≥1 point compared with the baseline),[9],18(52.94) n(%)
same,Stable Ishak score (unchanged compared with the baseline),[9],11 (32.35%) n(%) and 11(32.35) n(%)
same,"Ishak score 0 point, n(%)",[10],0(0.00) n(%)
same,"Ishak score 1 point, n(%)",[10],4(16.00) n(%)
same,"Ishak score 2 points, n(%)",[10],4(16.00) n(%)
same,"Ishak score 3 points, n(%)",[10],6(24.00) n(%)
same,"Ishak score 4 points, n(%)",[10],6(24.00) n(%)
same,"Ishak score 5 points, n(%)",[10],4(16.00) n(%)
same,"Ishak score 6 points, n(%)",[10],1(4.00) n(%)
same,"Ishak score change, Baseline-52 weeks of treatment, Mean (SD)",[9],0.68(1.34)
same,"Ishak score change, Baseline-52 weeks of treatment, Median",[9],1.00
same,"Ishak score decreased by <1, n(%)",[11],8(32.00) n(%)
same,"Ishak score decreased by ≥1, n(%)",[11],17(68.00) n(%)
same,"Rate difference (A-B) % and 95% CI, Ishak score decreased by ≥1","Group A vs Group B/C/D combined, FAS, baseline Ishak score ≥2","−24.09(−40.50, −4.45) %"
same,"Rate difference (A-B) % and 95% CI, Ishak score decreased by ≥1","Group A vs Group B/C/D combined, PPS, baseline Ishak score ≥2","−32.29(−48.91, −12.08) %"
same,"Ishak score 0 point, n(%)",[12],5(4.95) n(%)
same,"Ishak score 1 point, n(%)",[12],20(19.80) n(%)
same,"Ishak score 2 points, n(%)",[12],17(16.83) n(%)
same,"Ishak score 3 points, n(%)",[12],18(17.82) n(%)
same,"Ishak score 4 points, n(%)",[12],17(16.83) n(%)
same,"Ishak score 5 points, n(%)",[12],17(16.83) n(%)
same,"Ishak score 6 points, n(%)",[12],7(6.93) n(%)
same,"Ishak score decreased by <1, n(%)",[13],43(42.57) n(%)
same,"Ishak score decreased by ≥1, n(%)",[13],58(57.43) n(%)
same,"Ishak score 0 point, n(%)",[14],5(5.75) n(%)
same,"Ishak score 1 point, n(%)",[14],20(22.99) n(%)
same,"Ishak score 2 points, n(%)",[14],12(13.79) n(%)
same,"Ishak score 3 points, n(%)",[14],14(16.09) n(%)
same,"Ishak score 4 points, n(%)",[14],16(18.39) n(%)
same,"Ishak score 5 points, n(%)",[14],14(16.09) n(%)
same,"Ishak score 6 points, n(%)",[14],6(6.90) n(%)
same,"Ishak score decreased by <1, n(%)",[15],29(33.33) n(%)
same,"Ishak score decreased by ≥1, n(%)",[15],58(66.67) n(%)
same,"Rate difference (A-C) % and 95% CI, Ishak score decreased by ≥1","FAS, all subjects","−14.89(−33.32, 4.99) %"
same,"Rate difference (A-C) % and 95% CI, Ishak score decreased by ≥1","FAS, baseline Ishak score ≥3","−18.17(−42.04, 9.11) %"
same,"Rate difference (A-C) % and 95% CI, Ishak score decreased by ≥1","PPS, all subjects","−21.03(−40.20, 0.26) %"
same,"Rate difference (A-C) % and 95% CI, Ishak score decreased by ≥1","PPS, baseline Ishak score ≥3","−23.09(−46.75, 5.09) %"
same,"Rate difference (A-D) % and 95% CI, Ishak score decreased by ≥1","FAS, all subjects","−30.52% and −30.52(−48.12, −9.50) %"
same,"Rate difference (A-D) % and 95% CI, Ishak score decreased by ≥1","FAS, baseline Ishak score ≥3","−28.29(−50.04, −1.45) %"
same,"Rate difference (A-D) % and 95% CI, Ishak score decreased by ≥1","PPS, all subjects","−39.52% and −39.52(−56.83, −17.26) %"
same,"Rate difference (A-D) % and 95% CI, Ishak score decreased by ≥1","PPS, baseline Ishak score ≥3","−36.00(−56.89, −8.38) %"
same,"Rate difference (A-B) % and 95% CI, Ishak score decreased by ≥1","placebo group minus 360 mg group, FAS, all subjects","−18.32(−36.76, 1.96) %"
same,"Rate difference (A-B) % and 95% CI, Ishak score decreased by ≥1","placebo group minus 360 mg group, FAS, baseline Ishak score ≥3","−22.62(−44.98, 3.82) %"
same,"Rate difference (A-B) % and 95% CI, Ishak score decreased by ≥1","placebo group minus 360 mg group, PPS, all subjects","−26.75% and −26.75(−45.78, −4.75) %"
same,"Rate difference (A-B) % and 95% CI, Ishak score decreased by ≥1","placebo group minus 360 mg group, PPS, baseline Ishak score ≥3","−32.00(−53.61, −4.37) %"
same,"Rate difference (A-B) % and 95% CI, Ishak score decreased by ≥1","placebo group vs 270 mg group + 360 mg group, FAS, baseline Ishak score = 6","−65.00(−87.03, −10.74) %"
same,"Rate difference (A-B) % and 95% CI, Ishak score decreased by ≥1","placebo group vs 270 mg group + 360 mg group, FAS, baseline Ishak score ≥3","−25.40(−44.93, −2.00) %"
same,"Rate difference (A-B) % and 95% CI, Ishak score decreased by ≥1","placebo group vs 270 mg group + 360 mg group, FAS, baseline Ishak score ≥4","−23.80(−46.21, 2.59) %"
same,"Rate difference (A-B) % and 95% CI, Ishak score decreased by ≥1","placebo group vs 270 mg group + 360 mg group, FAS, baseline Ishak score ≥5","−15.38(−42.13, 13.79) %"
same,"Rate difference (A-B) % and 95% CI, Ishak score decreased by ≥1","placebo group vs 270 mg group + 360 mg group, PPS, baseline Ishak score = 6","−65.00(−87.03, −10.74) %"
same,"Rate difference (A-B) % and 95% CI, Ishak score decreased by ≥1","placebo group vs 270 mg group + 360 mg group, PPS, baseline Ishak score ≥3","−34.00(−53.15, −10.15) %"
same,"Rate difference (A-B) % and 95% CI, Ishak score decreased by ≥1","placebo group vs 270 mg group + 360 mg group, PPS, baseline Ishak score ≥4","−30.06(−51.94, −3.18) %"
same,"Rate difference (A-B) % and 95% CI, Ishak score decreased by ≥1","placebo group vs 270 mg group + 360 mg group, PPS, baseline Ishak score ≥5","−20.83(−47.05, 8.90) %"
